Blank lines part the entries; values can stand above or below the molecule they belong to. Where no end group is shown, it is not given here.
Columns and labels:
PD-1/PD-L1 binding = conditions: read-out: PD-1/PD-L1 inhibitory IC50; cited from earlier work
Excerpt: (§1) With continuous progress of modern separation and analysis techniques, high-throughput screening methods for enzyme inhibitory peptides have emerged as powerful tools in the discovery of bioactive peptides. Recently, the methodologies based on the phage display library, bacteria display library, and peptide fragment of proteins have been applied in screening for PD-L1 inhibitors.

Water-solubility = assay type: physicochemical; conditions: qualitative statement
CT26 tumor = conditions: 2 mg/kg, CT26 tumor-bearing mice; cited from earlier work
Excerpt: as §1

[1] = molecular target: T1, recombinant human PD-L1 (residue 18–239, extracellular domain) (human, UniProt Q9NZQ7 18-239); assay: SPR; Biacore T200, 25 °C; PD-L1 amine-coupled on a CM5 chip to about 5600 RU; peptides injected in PBS-P (1% DMSO) at 30 µL/min, 60 s contact, 60 s dissociation; conditions: both partners purified
T1 construct: Programmed death ligand 1 (PD-L1, B7-H1, CD274), human, residues 18-239, extracellular domain; The limits 18-239 are told for the SPR experiment; No tag is stated; also called programmed death ligand 1; source: bought: Abcam (recombinant, 25 kDa)

Tag1-PD-L1 protein = Tag1-PD-L1 protein (UniProt Q9NZQ7 19-238); assay: AlphaScreen or HTRF; Cisbio PD-1/PD-L1 HTRF binding assay kit; competition: analyte with Tag1-PD-L1 and Tag2-PD-1 for 15 min at room temperature, then anti-Tag1-Eu3+ and anti-Tag2-XL665 for 2 h at room temperature; conditions: both partners purified

Molecule: CKWYRPSEC [cyclic peptide C8, not the ascidian peptide C8]
- IC50 (PD-1/PD-L1 binding): < 10 µM

Molecule: NYSKPTDRQYHF [^DPPA-1]
- prolongation of survival time (CT26 tumor): ~50%
- tumor growth (CT26 tumor): inhibited the tumor growth

B1: S2 (peptide)
peptide: VLRDNIQGITKPAIR
notes: from the Styela clava trypsin hydrolysate; candidate protein: Histone H4 (Transparent ascidian); the text says that it exactly matches Histone H4 of Ciona savignyi; written as one molecule; also called peptide S2; source: trypsin hydrolysate of Styela clava (AUF); synthetic peptide, GuoPing Pharmaceutical (HTRF, SPR)
- Kd [1]: 29.1 µM
- IC50 (Tag1-PD-L1 protein): 113 µM

Second part, the molecule after the results:

- water-solubility (Water-solubility): poor
Molecule: LDVVIHTVTYGDR [C5]

- Kd [1]: 22.9 µM
- IC50 (Tag1-PD-L1 protein): 33.9 µM
B2: C5 (peptide)
peptide: LDVVIHTVTYGDR
notes: from the Ciona intestinalis trypsin hydrolysate; written as one molecule; The parent protein is not known; also called peptide C5; source: trypsin hydrolysate of Ciona intestinalis (AUF); synthetic peptide, GuoPing Pharmaceutical (HTRF, SPR)

From paper PMC12028738 (Marine Drugs, 2025)
